One series concerns interferon (α). In words: Cytokine Induction in Human Cells: interferon (α) secreted by PBMCs, ELISA. It is filed as cell-based. Conditions: incubated 18 to 24 hours, lowest concentration found to induce interferon. An excerpt:
(§1) An in vitro human blood cell system was used to assess cytokine induction by compounds of the invention. Activity is based on the measurement of interferon and tumor necrosis factor (α) (IFN and TNF, respectively) secreted into culture media as described by Testerman et. al. In “Cytokine Induction by the Immunomodulators Imiquimod and S-27609”, Journal of Leukocyte Biology, 58, 365–372 (September, 1995).
(§2) Whole blood is collected by venipuncture into EDTA vacutainer tubes from healthy human donors. Peripheral blood mononuclear cells (PBMCs) are separated from whole blood by density gradient centrifugation using Histopaque®-1077 (Sigma Chemicals, St. Louis, Mo.). The PBMCs are suspended at 3–4×10^6 cells/mL in RPMI 1640 medium containing 10% fetal bovine serum, 2 mM L-glutamine and 1% penicillin/streptomycin solution (RPMI complete). The PBMC suspension is added to 48 well flat bottom sterile tissue culture plates (Costar, Cambridge, Mass. or Becton Dickinson Labware, Lincoln Park, N.J.) containing an equal volume of RPMI complete media containing test compound.
(§3) The compounds are solubilized in dimethyl sulfoxide (DMSO). The DMSO concentration should not exceed a final concentration of 1% for addition to the culture wells.
(§4) The solution of test compound is added at 60 μM to the first well containing RPMI complete and serial (three fold or ten fold) dilutions are made. The PBMC suspension is then added to the wells in an equal volume, bringing the test compound concentrations to the desired range. The final concentration of PBMC suspension is 1.5–2×10^6 cells/mL. The plates are covered with sterile plastic lids, mixed gently and then incubated for 18 to 24 hours at 37° C. in a 5% carbon dioxide atmosphere.
(§5) Following incubation the plates are centrifuged for 5–10 minutes at 1000 rpm (˜200×g) at 4° C. The cell culture supernatant is removed with a sterile polypropylene pipette and transferred to sterile polypropylene tubes. Samples are maintained at −30 to −70° C. until analysis. The samples are analyzed for interferon (α) and tumor necrosis factor (α) by ELISA
Interferon (α) concentration is determined by ELISA using a Human Multi-Species kit from PBL Biomedical Laboratories, New Brunswick, N.J.
(§6) The table below lists the lowest concentration found to induce interferon and the lowest concentration found to induce tumor necrosis factor for each compound.
(ELISA stands for enzyme-linked immunosorbent assay.)

The test system of series [1] is tumor necrosis factor (α). In words: Cytokine Induction in Human Cells: tumor necrosis factor (α) secreted by PBMCs, ELISA. Type of series: cell-based. The following applies: incubated 18 to 24 hours, lowest concentration found to induce tumor necrosis factor.
Description: as §1, §2, §3, §4, §5
Tumor necrosis factor (α) (TNF) concentration is determined using ELISA kits available from Genzyme, Cambridge, Mass.; R&D Systems, Minneapolis, Minn.; or Pharmingen, San Diego, Calif.
as §6

Counter-ions that a name gives are not always drawn.

As usually defined, the melting point is the temperature, or range, at which the solid turns liquid. For orientation: minimal effective concentration means the smallest amount tested that counted as effective. A lower minimal effective concentration goes with an effect from little substance.

`CCCCc1nc2c(N)nc3ccccc3c2n1CCCCNS(=O)(=O)c1cccc(N)c1` (as salt: hydrochloride): the melting point was 110.2 °C (dec.).
On the same count and under the same terms, in the case of `CCCCc1nc2c(N)nc3ccccc3c2n1CCCCNS(=O)(=O)c1cccc([N+](=O)[O-])c1` (as salt: hydrochloride) [Example 7, N^1-[4-(4-Amino-2-butyl-1H-imidazo[4,5-c]quinolin-1-yl)butyl]-3-nitro-1-benzenesulfonamide Hydrochloride] it was 176 to 178.2 °C; in that of `CCCCc1nc2c(N)nc3ccccc3c2n1CCCCNS(=O)(=O)c1ccc([N+](=O)[O-])cc1` (as salt: hydrochloride) [Example 9, N^1-[4-(4-Amino-2-butyl-1H-imidazo[4,5-c]quinolin-1-yl)butyl]-4-nitro-1-benzenesulfonamide Hydrochloride], 96 °C (dec.); in that of `CCCCc1nc2c(N)nc3ccccc3c2n1CCCCNS(=O)(=O)c1ccc(N)cc1` (as salt: hydrochloride) [Example 10, N^1-[4-(4-Amino-2-butyl-1H-imidazo[4,5-c]quinolin-1-yl)butyl]-4-amino-1-benzenesulfonamide Hydrochloride], 203.1 to 205 °C.
Still for that read-out and setting: in the case of `Cc1nc2c(N)nc3c(c2n1CCCCNS(C)(=O)=O)CCCC3` (as salt: hydrochloride) [Example 263, N-[4-(4-amino-2-methyl-6,7,8,9-tetrahydro-1H-imidazo[4,5-c]quinolin-1-yl)butyl]methanesulfonamide hydrochloride] it was greater than 250 °C.
The same measure, in the same setting: in the case of `CCCCc1nc2c(N)nc3ccccc3c2n1CCCCNS(=O)(=O)c1cccc2c(N(C)C)cccc12` [Example 1, N^1-[4-(4-Amino-2-butyl-1H-imidazo[4,5-c]quinolin-1-yl)butyl]-5-(dimethylamino)-1-naphthalenesulfonamide] it was 223 to 224 °C.
`CCCCc1nc2c(N)nc3ccccc3c2n1CCCCNS(=O)(=O)c1cccs1` [Example 3, N^2-[4-(4-Amino-2-butyl-1H-imidazo[4,5-c]quinolin-1-yl)butyl]-2-thiophenesulfonamide]: the melting point was 137.5 to 141.5 °C.
The same measure, in the same setting: in the case of `CCCCc1nc2c(N)nc3ccccc3c2n1CCCCNS(=O)(=O)Cc1ccccc1` [Example 4, N-[4-(4-Amino-2-butyl-1H-imidazo[4,5-c]quinolin-1-yl)butyl]phenylmethanesulfonamide] it was 197 to 199.5 °C; in that of `CCCCc1nc2c(N)nc3ccccc3c2n1CCCCNS(=O)(=O)c1ccccc1` [Example 5, N^1-[4-(4-Amino-2-butyl-1H-imidazo[4,5-c]quinolin-1-yl)butyl]-1-benzenesulfonamide], 75.5 to 79 °C.
For `CCCCc1nc2c(N)nc3ccccc3c2n1CCCCNS(=O)(=O)c1cccc([N+](=O)[O-])c1` [Example 7, N^1-[4-(4-Amino-2-butyl-1H-imidazo[4,5-c]quinolin-1-yl)butyl]-3-nitro-1-benzenesulfonamide Hydrochloride], the minimal effective concentration in the series on interferon (α) (Hydrochloride) is 0.01 µM. Moreover, the “Lowest Effective Concentration (μM) Tumor Necrosis Factor” value (“Lowest Effective Concentration” below) in series [1] (Hydrochloride) was “** (no induction was seen at any of the tested concentrations (0.12, 0.37, 1.11, 3.33, 10 and 30 μM))”.
`CCCCc1nc2c(N)nc3ccccc3c2n1CCCCNS(=O)(=O)c1ccc([N+](=O)[O-])cc1` [Example 9, N^1-[4-(4-Amino-2-butyl-1H-imidazo[4,5-c]quinolin-1-yl)butyl]-4-nitro-1-benzenesulfonamide Hydrochloride] had a minimal effective concentration in the series with interferon (α) (Hydrochloride) of 0.04 µM. For the same molecule, the “Lowest Effective Concentration” value in series [1] (Hydrochloride) was “** (no induction was seen at any of the tested concentrations (0.12, 0.37, 1.11, 3.33, 10 and 30 μM))”.
As to `CCCCc1nc2c(N)nc3ccccc3c2n1CCCCNS(=O)(=O)c1cccc2cnccc12` [Example 11, N^5-[4-(4-Amino-2-butyl-1H-imidazo[4,5-c]quinolin-1-yl)butyl]-5-isoquinolinesulfonamide], the melting point is 96 °C (dec.).
Regarding `COc1ccc(Cc2nc3c(N)nc4ccccc4c3n2CCCCNS(C)(=O)=O)cc1` [Example 12, N-[4-(4-Amino-2-(4-methoxybenzyl)-1H-imidazo[4,5-c]quinolin-1-yl]butyl]methanesulfonamide], the melting point lay in the range of 78.1 to 79.5 °C.
Same read-out and setting: in the case of `COCCc1nc2c(N)nc3c(c2n1CCCCNS(=O)(=O)c1ccc(F)cc1)CCCC3` [Example 14, N^1-{4-[4-Amino-2-(2-methoxyethyl)-6,7,8,9-tetrahydro-1H-imidazo[4,5-c]quinolin-1-yl]butyl}-4-fluoro-1-benzenesulfonamide] it was 191 to 193 °C.
Same read-out and setting: in the case of `Nc1nc2ccccc2c2c1nc(-c1ccccc1)n2CCCCNS(=O)(=O)c1ccc(F)cc1` [Example 15, N-[4-(4-Amino-2-phenyl-1H-imidazo[4,5-c]quinolin-1-yl)butyl]-4-fluoro-1-benzenesulfonamide] it was 214 to 216 °C.
On the same count and under the same terms, the same measure for `CS(=O)(=O)NCCCCn1c(-c2ccccc2)nc2c(N)nc3ccccc3c21` [Example 16, N-[4-(4-Amino-2-phenyl-1H-imidazo[4,5-c]quinolin-1-yl)butyl]methanesulfonamide]: 234 to 235 °C.
Turning to `CCCCc1nc2c(N)nc3ccccc3c2n1CCNS(C)(=O)=O` [Example 34, N-[2-(4-Amino-2-butyl-1H-imidazo[4,5-c]quinolin-1-yl)ethyl]methanesulfonamide Trifluoroacetate], the values for the minimal effective concentration (in the series on interferon (α); in series [1]) were 0.04 µM and 0.37 µM, respectively.
For `CCCCc1nc2c(N)nc3ccccc3c2n1CCNS(=O)(=O)C(F)(F)F` [Example 35, N-[2-(4-Amino-2-butyl-1H-imidazo[4,5-c]quinolin-1-yl)ethyl]trifluoromethanesulfonamide Trifluoroacetate], in that order: 1.11 µM and 10 µM.
`CS(=O)(=O)NCCCCn1cnc2c(N)nc3c(c21)CCCC3` [Example 72, N-[4-(4-Amino-6,7,8,9-tetrahydro-1H-imidazo[4,5-c]quinolin-1-yl)butyl]methanesulfonamide Trifluoroacetate] displayed a minimal effective concentration with interferon (α) of 3.33 µM. For the same molecule, the “Lowest Effective Concentration” value in series [1] is “** (no induction was seen at any of the tested concentrations (0.12, 0.37, 1.11, 3.33, 10 and 30 μM))”.
Take `CCCCc1nc2c(N)nc3ccccc3c2n1CCCCNS(=O)(=O)C[C@@]12CC[C@@H](CC1=O)C2(C)C` [Example 89]: the minimal effective concentration was 0.001 µM with interferon (α) (PBMC) and 1 µM in series [1] (PBMC).
`COCCc1nc2c(N)nc3c(c2n1CCCCNS(C)(=O)=O)CCCC3` [Example 214, N-[4-(4-Amino-6,7,8,9-tetrahydro-2-(2-methoxyethyl)-1H-imidazo[4,5-c]quinolin-1-yl)butyl]methanesulfonamide Trifluoroacetate]: the values for the minimal effective concentration (with interferon (α); in series [1]) were 0.01 µM and 10 µM, respectively.
On to `CCc1nc2c(N)nc3ccccc3c2n1CCCCNS(C)(=O)=O` [Example 236, N-[4-(4-amino-2-ethyl-1H-imidazo[4,5-c]quinolin-1-yl)butyl]methanesulfonamide], for which the results for the minimal effective concentration (with interferon (α) (PBMC); in series [1] (PBMC)) were 0.01 µM and 0.12 µM, respectively.
`COCCc1nc2c(N)nc3ccccc3c2n1CCCCN1CCCS1(=O)=O` [Example 266, 1-[4-(1,1-dioxidoisothiazolidin-2-yl)butyl]-2-(2-methoxyethyl)-1H-imidazo[4,5-c]quinolin-4-amine] returned a melting point of 156.4 to 157.7 °C.
Same read-out and setting: the same measure for `CCS(=O)(=O)NCCCCn1c(C)nc2c(N)nc3ccccc3c21` [Example 269, N-[4-(4-amino-2-methyl-1H-imidazo[4,5-c]quinolin-1-yl)butyl]ethanesulfonamide]: 210.7 to 211.6 °C; for `CS(=O)(=O)NCCCCn1c(CC2CC2)nc2c(N)nc3ccccc3c21` [Example 270, N-{4-[4-amino-2-(cyclopropylmethyl)-1H-imidazo[4,5-c]quinolin-1-yl]butyl}methanesulfonamide]: 199.7 to 200.7 °C.

The values are drawn from patent US7199131B2, “Sulfonamide and sulfamide substituted imidazoquinolines” (3M Innovative Properties Company, priority 2001, dated 2007).
